The record followed here is patent US7501428B2, “Quinazoline thiazolinones” (Hoffmann-La Roche Inc., priority 2004, dated 2009).

This experiment deals with T1, recombinant human CDK1/Cyclin B complex (Homo sapiens, UniProt P06493).
T1 construct: made in house; host or cells: High Five insect cells (baculovirus) for CDK1/GST-cyclin B; M15 E. coli for the Rb substrate
T1 sequence (P06493 whole entry): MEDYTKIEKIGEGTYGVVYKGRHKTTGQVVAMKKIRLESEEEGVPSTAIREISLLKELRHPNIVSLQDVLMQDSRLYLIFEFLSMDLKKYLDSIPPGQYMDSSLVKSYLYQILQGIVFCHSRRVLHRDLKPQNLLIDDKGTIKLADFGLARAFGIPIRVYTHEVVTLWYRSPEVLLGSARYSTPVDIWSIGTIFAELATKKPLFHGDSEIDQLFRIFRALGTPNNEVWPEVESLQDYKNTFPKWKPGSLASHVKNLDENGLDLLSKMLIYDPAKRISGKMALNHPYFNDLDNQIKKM
T1 sequence (P14635 whole entry partner): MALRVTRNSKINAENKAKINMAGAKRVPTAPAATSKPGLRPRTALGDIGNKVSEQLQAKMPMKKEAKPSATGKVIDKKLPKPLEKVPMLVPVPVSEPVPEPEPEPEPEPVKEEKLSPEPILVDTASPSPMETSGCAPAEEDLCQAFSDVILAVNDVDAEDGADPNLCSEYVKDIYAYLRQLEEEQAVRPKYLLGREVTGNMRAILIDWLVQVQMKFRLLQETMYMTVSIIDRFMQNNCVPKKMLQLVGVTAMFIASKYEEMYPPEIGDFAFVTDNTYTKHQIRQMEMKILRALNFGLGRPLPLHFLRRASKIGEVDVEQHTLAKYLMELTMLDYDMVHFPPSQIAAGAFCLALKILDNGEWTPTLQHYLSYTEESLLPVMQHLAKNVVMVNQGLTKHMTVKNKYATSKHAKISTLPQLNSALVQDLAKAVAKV
As to the kind of experiment: CDK1/Cyclin B kinase assay (FlashPlate or HTRF). It is filed as biochemical. As to conditions: Rb protein substrate, Ki=IC50/(1+[S]/Km). As to the method:
To determine inhibition of CDK1 activity, either FlashPlate™ (NEN™-Life Science Products) assay or HTRF assay was performed. Both types of kinase assays were carried out using recombinant human CDK1/Cyclin B complex. GST-cyclinB (GST-cycB) and CDK1 cDNA clones in baculovirus vectors were provided by Dr. W. Harper at the Baylor College of Medicine, Houston, Tex. Proteins were co-expressed in High Five™ insect cells and the complex was purified on glutathione Sepharose resin (Pharmacia, Piscataway, N.J.) as previously described (Harper, J. W. et al. Cell 1993, 75, 805-816). A 6×-Histidine tagged truncated form of retinoblastoma (Rb) protein (amino acid 386-928) was used as the substrate for the CDK1/Cyclin B assay (the expression plasmid was provided by Dr. Veronica Sullivan, Department of Molecular Virology, Roche Research Centre, Welwyn Garden City, United Kingdom). The Rb protein is a natural substrate for phosphorylation by CDK1 (see Herwig and Strauss Eur. J. Biochem. Vol. 246 (1997) pp. 581-601 and the references cited therein). The expression of the 62Kd protein was under the control of an IPTG inducible promoter in an M15 E. coli strain. Cells were lysed by sonication and purification was carried out by binding lysates at pH 8.0 to a Ni-chelated agarose column pretreated with 1 mM imidazole. The resin was then washed several times with incrementally decreasing pH buffers to pH 6.0, and eluted with 500 mM imidazole. Eluted protein was dialyzed against 20 mM HEPES pH 7.5, 30% glycerol, 200 mM NaCl, and 1 mM DTT. Purified Rb fusion protein stocks were quantitated for protein concentration, aliquoted, and stored at −70° C.
For the FlashPlate kinase assay, 96-well FlashPlates were coated with Rb protein at 10 μg/ml, using 100 μl per well. Plates were incubated at 4° C. overnight or at room temperature for 3 hours on a shaker. […] Plates were washed four times with the wash buffer, sealed, and counted on the TopCount scintillation counter (Packard Instrument Co., Downers Grove, Ill.]. The percent inhibition of Rb phosphorylation, which is a measure of the inhibition of CDK activity, was determined according to the following formula:
[formula] where “test compound” refers to the average counts per minute of the test duplicates, “nonspecific” refers to the average counts per minute when no CDK1/Cyclin B, etc., was added, and “total” refers to the average counts per minute when no compound was added. […] The value of the inhibitor constant Ki is calculated by the following: Ki=IC50/(1+[S]/Km), where [S] is the ATP concentration and Km is Michaelis constant.
The Homogeneous Time Resolved Fluorescence (HTRF) kinase assay was carried out in 96-well polypropylene plates (BD Biosciences, Bedford, Mass.). […]
(TR-FRET usually uses a lanthanide donor and a delayed reading to cut background.)
By Ki is commonly meant a dissociation constant, usually derived from enzyme kinetics or from competition with a known ligand. Take `O=C1N=C(NCc2cccs2)S/C1=C\c1ccc2ncncc2c1` [Example 1, 5-[1-Quinazolin-6-yl-meth-(Z)-ylidene]-2-[(thiophen-2-ylmethyl)-amino]-thiazol-4-one]: the Ki worked out at 1220 nM.

Regarding `O=C1N=C(NCCc2cccc(F)c2)S/C1=C\c1ccc2ncncc2c1` [Example 3, 2-[2-(3-Fluoro-phenyl)-ethylamino]-5-[1-quinazolin-6-yl-meth-(Z)-ylidene]-thiazol-4-one], the Ki came out at 881 nM.

On to `COc1cc(F)ccc1NC1=NC(=O)/C(=C/c2ccc3ncncc3c2)S1` [Example 5, 2-(4-Fluoro-2-methoxy-phenylamino)-5-[1-quinazolin-6-yl-meth-(Z)-ylidene]-thiazol-4-one], for which the inhibition constant Ki was determined as 1840 nM.

In the case of `O=C1N=C(N[C@@H](CO)Cc2ccccc2)S/C1=C\c1ccc2ncncc2c1` [Example 7, 2-((R)-1-Hydroxymethyl-2-phenyl-ethylamino)-5-[1-quinazolin-6-yl-meth-(Z)-ylidene]-thiazol-4-one], the inhibition constant Ki was 1110 nM.
